The test system of experiment [1] is SARS-CoV-2. The experiment is described as follows: Antiviral activity VSV-S pseudotyped SARS-CoV-2 Wuhan-Hu-1 harboring MN908947 mutant infected in Green monkey VeroE6/TMPRSS2 cells assessed as reduction in viral production at 10 uM preincubated with virus for 1 hrs followed by cell infection for 1 hrs and measured 24 hrs after replacement with fresh media with compound relative to control. Particulars: time 26 hrs. The experiment is classed as functional, Severe acute respiratory syndrome coronavirus 2. On the set-up: scale not given: the % may be the effect or the level left.

In experiment [2] the test system is SARS-CoV-2. The experiment is described as follows: Antiviral activity VSV-S pseudotyped SARS-CoV-2 Wuhan-Hu-1 harboring MN908947 mutant infected in human A549-ACE2 cells assessed as reduction in viral production at 10 uM preincubated with virus for 1 hrs followed by cell infection for 1 hrs and measured 24 hrs after replacement with fresh media with compound relative to control. It is filed as functional, Severe acute respiratory syndrome coronavirus 2. On the set-up: scale not given: the % may be the effect or the level left. As to conditions: time 26 hrs.

Take `CCC(CC)COC(=O)[C@H](C)N[P@](=O)(OC[C@H]1O[C@@](C#N)(c2ccc3c(N)ncnn23)[C@H](O)[C@@H]1O)Oc1ccccc1`: the Activity in the experiment with SARS-CoV-2 [1] is more than 89%; with SARS-CoV-2 [2], more than 98%.
For `NCCOCCOCCC(=O)NCC(=O)NC(CCC(=O)NC(Cc1c(Sc2ccc([N+](=O)[O-])cc2)[nH]c2ccccc12)C(=O)O)(CCC(=O)NC(Cc1c(Sc2ccc([N+](=O)[O-])cc2)[nH]c2ccccc12)C(=O)O)CCC(=O)NC(Cc1c(Sc2ccc([N+](=O)[O-])cc2)[nH]c2ccccc12)C(=O)O` (stereo unspecified), the Activity in the experiment on SARS-CoV-2 [1] is more than 89%; in the experiment with SARS-CoV-2 [2] it was more than 98%.
For `O=C(CCOCCOCCOCCOCCC(=O)NCC(=O)NC(CCC(=O)NC(Cc1c(Sc2ccc([N+](=O)[O-])cc2)[nH]c2ccccc12)C(=O)O)(CCC(=O)NC(Cc1c(Sc2ccc([N+](=O)[O-])cc2)[nH]c2ccccc12)C(=O)O)CCC(=O)NC(Cc1c(Sc2ccc([N+](=O)[O-])cc2)[nH]c2ccccc12)C(=O)O)NCC(=O)NC(CCC(=O)NC(Cc1c(Sc2ccc([N+](=O)[O-])cc2)[nH]c2ccccc12)C(=O)O)(CCC(=O)NC(Cc1c(Sc2ccc([N+](=O)[O-])cc2)[nH]c2ccccc12)C(=O)O)CCC(=O)NC(Cc1c(Sc2ccc([N+](=O)[O-])cc2)[nH]c2ccccc12)C(=O)O` (stereo unspecified), in that order: more than 89% and more than 98%.

For the origin of these results see ChEMBL document CHEMBL5360617, “C-2 Thiophenyl Tryptophan Trimers Inhibit Cellular Entry of SARS-CoV-2 through Interaction with the Viral Spike (S) Protein” (J Med Chem, 2023).
